Test [1] concerns the target T1, ΔF508 CFTR (Homo sapiens, UniProt P13569, DEL508-508). The experiment in a line: Corrector activity, YFP halide (iodide) quenching assay in FRT cells expressing ΔF508 CFTR. It is filed as cell-based. Also noted: expressed in transfected cells; host or cells: Fischer rat thyroid (FRT) cells. The following applies: FRT cells ΔF508 CFTR/YFP, 24 hours with compound at 37° C., forskolin and genistein; read-out: Corrector EC50. The method in brief: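 FRT cells co-expressing ΔF508 CFTR and halide-sensitive YFP were incubated 24 h at 37° C with compounds, then stimulated 30 min at 37° C in PBS with forskolin and genistein. Endpoint fluorescence after iodide injection was normalized to initial reading; EC50 from 4-parameter fit with bottom constrained to DMSO control.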

The target of test [2] is T1, ΔF508 CFTR. Kind of test: Potentiator activity, YFP halide (iodide) quenching assay in FRT cells expressing ΔF508 CFTR, 27° C. pre-incubation. It is filed as cell-based. Also on record: expressed in transfected cells; host or cells: Fischer rat thyroid (FRT) cells. Particulars: FRT cells ΔF508 CFTR/YFP, 24 hours at 27° C., compound with forskolin 30 min. As to the method: Fisher rat thyroid (FRT) cells stably expressing ΔF508 CFTR and a halide-sensitive variant of yellow fluorescent protein (YFP) were seeded into microtiter plates and allowed to grow for 24 hours at 37° C. and 5% CO2, as described above. The medium was replaced with fresh medium and the cells were incubated for a further 24 hours at 27° C. and 5% CO2 to increase the level of mutant CFTR at the cell surface.
Compounds in DMSO solution were pre-diluted into phosphate-buffered saline solution (PBS) containing forskolin. Activity of CFTR was assayed by removing the medium, washing the cell monolayer with PBS, and then applying the compounds diluted in PBS containing forskolin. After 30 min of incubation at 37° C., the plates were placed in a fluorescence plate reader equipped with a reagent injector. After measuring an initial fluorescence value, iodide-containing buffer was injected and the decrease in fluorescence was followed at excitation and emission wavelengths of 485 and 530 nm, respectively.
Potentiator activity was calculated as follows. Normalized endpoint fluorescence was calculated by dividing the endpoint fluorescence after iodide injection by the initial fluorescence reading and multiplication by 100. Potentiator EC50 values were calculated by the same method as corrector EC50 values.

T1 sequence (P13569 with tags, fused parts or gaps DEL508-508): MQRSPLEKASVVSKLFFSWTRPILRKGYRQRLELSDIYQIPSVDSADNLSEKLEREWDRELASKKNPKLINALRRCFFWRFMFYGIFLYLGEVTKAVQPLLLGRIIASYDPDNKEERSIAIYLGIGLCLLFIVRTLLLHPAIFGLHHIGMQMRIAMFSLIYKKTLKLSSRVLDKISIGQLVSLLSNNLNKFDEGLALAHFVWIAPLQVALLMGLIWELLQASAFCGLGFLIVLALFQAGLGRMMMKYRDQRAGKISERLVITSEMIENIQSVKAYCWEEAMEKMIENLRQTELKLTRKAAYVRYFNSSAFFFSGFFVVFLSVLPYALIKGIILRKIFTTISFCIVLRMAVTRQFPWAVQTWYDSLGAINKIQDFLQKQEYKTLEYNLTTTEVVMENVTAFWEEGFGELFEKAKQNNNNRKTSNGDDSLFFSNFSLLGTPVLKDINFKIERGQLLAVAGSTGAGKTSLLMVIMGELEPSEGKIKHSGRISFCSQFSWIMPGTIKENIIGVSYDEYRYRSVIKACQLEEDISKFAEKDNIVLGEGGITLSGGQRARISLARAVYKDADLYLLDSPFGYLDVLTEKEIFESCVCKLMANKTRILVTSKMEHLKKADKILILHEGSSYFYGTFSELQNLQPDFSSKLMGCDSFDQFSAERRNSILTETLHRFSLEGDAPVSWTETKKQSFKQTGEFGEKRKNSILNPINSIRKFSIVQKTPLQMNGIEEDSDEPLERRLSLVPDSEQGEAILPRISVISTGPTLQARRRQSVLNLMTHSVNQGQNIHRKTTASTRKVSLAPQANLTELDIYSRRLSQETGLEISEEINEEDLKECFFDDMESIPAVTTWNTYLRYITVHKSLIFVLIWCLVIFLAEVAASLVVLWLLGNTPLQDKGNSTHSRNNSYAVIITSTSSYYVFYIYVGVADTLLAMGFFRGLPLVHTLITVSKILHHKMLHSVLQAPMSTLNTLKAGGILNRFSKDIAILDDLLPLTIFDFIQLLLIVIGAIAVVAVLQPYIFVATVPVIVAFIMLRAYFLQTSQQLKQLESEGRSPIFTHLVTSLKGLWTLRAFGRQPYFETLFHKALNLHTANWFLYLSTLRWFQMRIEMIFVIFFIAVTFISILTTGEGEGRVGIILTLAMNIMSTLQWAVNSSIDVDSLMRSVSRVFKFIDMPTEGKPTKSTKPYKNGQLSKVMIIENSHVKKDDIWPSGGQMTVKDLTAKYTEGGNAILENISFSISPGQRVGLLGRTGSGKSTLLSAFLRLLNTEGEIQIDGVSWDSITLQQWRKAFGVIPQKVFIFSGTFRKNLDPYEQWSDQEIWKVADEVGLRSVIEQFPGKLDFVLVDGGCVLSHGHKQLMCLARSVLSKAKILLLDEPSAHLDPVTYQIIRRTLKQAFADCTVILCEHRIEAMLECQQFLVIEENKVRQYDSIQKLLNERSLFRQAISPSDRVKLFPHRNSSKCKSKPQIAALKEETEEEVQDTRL

Consider `CCn1nc(Sc2cc(F)cc(F)c2)c2c(N)ncnc21` [compound 264], for which the concentration giving a half-maximal response (EC50) in test [1] was over 15 µM; in test [2] it was 2 to 5 µM.
In the case of `CC(C)C(=O)Nc1ncnc2c1c(-c1ccc(Cl)cc1)nn2C(C)(C)C` [compound 265], the figures for the half-maximal effective concentration (EC50) in test [1] and in test [2] were 5 to 10 µM and under 2 µM, respectively.
Take `CC(C)(C)n1nc(-c2ccc(Cl)cc2)c2c(NC(=O)C3CCCC3)ncnc21` [compound 266]: the EC50 in test [1] was 5 to 10 µM; in test [2], under 2 µM.
The like results for `CC(C)(C)n1nc(-c2ccc(Cl)cc2)c2c(NC(=O)N3CCOCC3)ncnc21` [compound 268] were, in that order, over 15 µM and over 15 µM.
Taken in the same sequence, the figures for `CN(C)C(=O)Nc1ncnc2c1c(-c1ccc(Cl)cc1)nn2C(C)(C)C` [compound 269] were over 15 µM and over 15 µM.
The like results for `CCOC(=O)N1CC(n2nc(-c3ccc(Cl)cc3)c3c(N)ncnc32)C1` [compound 270] were, in that order, over 15 µM and over 15 µM.
Take `CCC(=O)Nc1ncnc2c1c(-c1ccc(Cl)cc1)cn2CC` [compound 271]: the EC50 in test [1] is under 2 µM; in test [2], 5 to 10 µM.
The like results for `CCn1cc(-c2ccc(Cl)cc2)c2c(NC(=O)c3ccccc3)ncnc21` [compound 272] were, in that order, under 2 µM and over 15 µM.
In the case of `CC(C)(C)n1nc(-c2ccc(Cl)cc2)c2c(NC(=O)N3CCCCC3)ncnc21` [compound 273], the EC50 in test [1] and in test [2] was over 15 µM throughout.
Consider `CC(C)(C)n1nc(-c2ccc(O)cc2Cl)c2c(N)ncnc21` [compound 276], for which the EC50 in test [1] was 5 to 10 µM; in test [2] it was under 2 µM.
Taken in the same sequence, the figures for `Nc1ncnc2c1c(-c1ccc(Cl)cc1)nn2-c1nc2ccccc2o1` [compound 277] were over 15 µM and over 15 µM.
The like results for `Nc1ncnc2c1c(Oc1cccc(Cl)c1)nn2CC1CC1` [compound 278] were, in that order, over 15 µM and under 2 µM.
Taken in the same sequence, the figures for `CCn1nc([S+]([O-])c2cccc(Cl)c2)c2c(N)ncnc21` (stereo not shown) [compound 279] were over 15 µM and over 15 µM.
With `CCn1nc(Sc2cccc(OC)c2)c2c(N)ncnc21` [compound 280], the EC50 in test [1] and in test [2] was over 15 µM throughout.
`CCn1nc(Sc2cccc(OC(F)(F)F)c2)c2c(N)ncnc21` [compound 281]: the half-maximal effective concentration (EC50) in test [1] and in test [2] was over 15 µM throughout.
Consider `CCn1cc(-c2ccc(Cl)cc2)c2c(N(C)C(C)=O)ncnc21` [compound 282], for which the EC50 in test [1] and in test [2] was over 15 µM each time.
As for `CCn1nc([S+]([O-])c2cc(F)cc(F)c2)c2c(N)ncnc21` (stereo not shown) [compound 283], the EC50 in test [1] and in test [2] was over 15 µM each time.
In the case of `CCn1nc([S+]([O-])c2cccc(C(F)(F)F)c2)c2c(N)ncnc21` (stereo not shown) [compound 284], the EC50 in test [1] and in test [2] was over 15 µM in each case.
Consider `CCn1nc([S+]([O-])c2cccc(O)c2)c2c(N)ncnc21` (stereo not shown) [compound 285], for which the EC50 in test [1] and in test [2] was over 15 µM throughout.
As to `CCn1nc(Nc2cccc(Cl)c2)c2c(N)ncnc21` [compound 286], the EC50 in test [1] and in test [2] was over 15 µM each time.
For the compound `Nc1ncnc2c1c(Oc1cccc(Cl)c1)nn2-c1ncccn1` [compound 287], the EC50 in test [1] and in test [2] was over 15 µM throughout.
`Nc1ncnc2c1c(-c1ccc(Cl)cc1)nn2-c1ccc([N+](=O)[O-])cn1` [compound 288]: the EC50 in test [1] and in test [2] was over 15 µM in each case.
As for `CCC(C)Cn1cc(-c2ccc(Cl)cc2)c2c(N)ncnc21` (stereo not shown) [compound 289], the EC50 in test [1] was 5 to 10 µM; in test [2], 2 to 5 µM.
Consider `Nc1ncnc2c1c(-c1ccc(Cl)cc1)cn2CC(F)F` [compound 290], for which the EC50 was under 2 µM in test [1] and 2 to 5 µM in test [2].
The like results for `CCn1nc([S+]([O-])c2ccc(C)cc2)c2c(N)ncnc21` (stereo not shown) [compound 291] were, in that order, over 15 µM and over 15 µM.
Regarding `CCn1nc([S+]([O-])c2ccc(F)cc2F)c2c(N)ncnc21` (stereo not shown) [compound 292], the EC50 in test [1] and in test [2] was over 15 µM in each case.
Take `O=[N+]([O-])c1ccc(Nc2ncnc3[nH]nc(-c4ccc(Cl)cc4)c23)nc1` [compound 293]: the EC50 in test [1] and in test [2] was over 15 µM throughout.
Consider `CCn1cc(-c2ccc(Cl)cc2)c2c(NC(=O)c3ccc(C)cc3)ncnc21` [compound 298], for which the concentration for a half-maximal effect (EC50) was under 2 µM in test [1] and over 15 µM in test [2].
Taken in the same sequence, the figures for `CCn1cc(-c2ccc(Cl)cc2)c2c(NC(=O)c3ccc(F)cc3)ncnc21` [compound 299] were under 2 µM and over 15 µM.
Taken in the same sequence, the figures for `CC(C)OC(=O)Nc1ncnc2c1c(-c1ccc(Cl)cc1)nn2C(C)(C)C` [compound 300] were 5 to 10 µM and over 15 µM.
For `CC(=O)N1CCC(n2nc(-c3ccc(Cl)cc3)c3c(N)ncnc32)CC1` [compound 302], the EC50 is under 2 µM in test [1] and over 15 µM in test [2].
For the compound `CCOC(=O)N1CCC(n2nc(-c3ccc(Cl)cc3)c3c(N)ncnc32)CC1` [compound 303], the EC50 in test [1] and in test [2] was over 15 µM each time.
As to `CC(=O)N1CC(n2cc(Cc3cccc4ccccc34)c3c(N)ncnc32)C1` [compound 306], the EC50 in test [1] and in test [2] was over 15 µM throughout.
Turning to `Nc1ncnc2c1c(-c1ccc(Cl)cc1)nn2[C@@H]1CCOC1` [compound 307], the EC50 in test [1] and in test [2] was over 15 µM throughout.
`CCn1nc(Nc2cccc3ccccc23)c2c(N)ncnc21` [compound 308]: the EC50 in test [1] is 5 to 10 µM; in test [2], over 15 µM.
In the case of `Nc1ncnc2c1c(-c1ccc(Cl)cc1)cn2CC(O)CF` (stereo not shown) [compound 309], the values for the 50% effective concentration (EC50) in test [1] and in test [2] were 2 to 5 µM and over 15 µM, respectively.
With `Cn1cc(-c2ccc(Cl)cc2)c2c(N)ncnc21` [compound 310], the EC50 in test [1] is under 2 µM; in test [2], over 15 µM.
The like results for `C=CCn1cc(-c2ccc(Cl)cc2)c2c(N)ncnc21` [compound 311] were, in that order, 2 to 5 µM and 5 to 10 µM.
Turning to `COc1nn(C(C)(C)C)c2ncnc(N)c12` [compound 312, 1-tert-butyl-3-methoxy-1H-pyrazolo[3,4-d]pyrimidin-4-ylamine], the EC50 was over 15 µM in test [1] and 5 to 10 µM in test [2].
As to `CCn1nc(Nc2ccc3c(c2)OC(F)(F)O3)c2c(N)ncnc21` [compound 313], the figures for the half-maximal effective concentration (EC50) in test [1] and in test [2] were over 15 µM and 2 to 5 µM, respectively.
Taken in the same sequence, the figures for `CN(c1ccccc1)c1nn(C2CCC2)c2ncnc(N)c12` [compound 314] were over 15 µM and over 15 µM.
The like results for `CC(C)n1cc(-c2ccc(Cl)cc2)c2c(N)ncnc21` [compound 315] were, in that order, under 2 µM and 2 to 5 µM.
Taken in the same sequence, the figures for `CC(C)(C)Cn1cc(-c2ccc(Cl)cc2)c2c(N)ncnc21` [compound 316] were 5 to 10 µM and 2 to 5 µM.
In the case of `CCn1nc(N(C)c2cccc(Cl)c2)c2c(N)ncnc21` [compound 317], the EC50 in test [1] and in test [2] was over 15 µM throughout.
For `Nc1ncnc2c1c(-c1ccc(Cl)cc1)nn2[C@H]1CCOC1` [compound 318], the EC50 in test [1] and in test [2] was over 15 µM each time.
Regarding `CCNC(=O)N1CCC(n2nc(-c3ccc(Cl)cc3)c3c(N)ncnc32)CC1` [compound 319], the 50% effective concentration (EC50) in test [1] and in test [2] was over 15 µM in each case.
For `CC(C)(C)n1cc(-c2ccc(Cl)cc2)c2c(NC(=O)C3CCCC3)ncnc21` [compound 321], the EC50 in test [1] and in test [2] was under 2 µM each time.
For `CCn1cc(-c2ccc(Cl)cc2)c2c(NC(=O)C(C)(C)C)ncnc21` [compound 322], the EC50 in test [1] and in test [2] was 2 to 5 µM throughout.
Turning to `CCn1nc(Sc2cccc(C(F)(F)F)c2)c2c(N)ncnc21` [compound 323], the EC50 in test [1] was over 15 µM; in test [2], under 2 µM.
The like results for `CCn1nc(Sc2ccccn2)c2c(N)ncnc21` [compound 324] were, in that order, over 15 µM and over 15 µM.
On to `CC(C)(C)n1nc(O)c2c(N)ncnc21` [compound 325, 4-amino-1-tert-butyl-1H-pyrazolo[3,4-d]pyrimidin-3-ol], for which the EC50 in test [1] and in test [2] was over 15 µM in each case.
On to `CC(C)(C)n1nc(Oc2ncccn2)c2c(N)ncnc21` [compound 326], for which the EC50 in test [1] and in test [2] was over 15 µM in each case.
As to `Nc1ncnc2c1c(-c1ccc(Cl)cc1)cn2Cc1ccccc1` [compound 327], the EC50 in test [1] was over 15 µM; in test [2], under 2 µM.

What is called EC50 is the concentration needed to bring the measured effect to its halfway point.

These data come from patent publication US20100331297A1, “MODULATION OF PROTEIN TRAFFICKING” (FOLDRX PHARMACEUTICALS, INC., priority 2007, published 2010).
